pIC50: −log10 of the molar value.
Tests used:
Cytochrome P450 2C8 = Cytochrome P450 2C8 (Homo sapiens, UniProt P10632); experiment: Inhibition of CYP2C8 (unknown origin); format: ADME
NCI-H1299 = experiment: Antiproliferative activity against human NCI-H1299 cells measured after 4 to 5 days by CCK-8 assay; format: functional, cell-based
PRMT5/MEP50 complex = PRMT5/MEP50 complex (Homo sapiens, UniProt O14744); experiment: Inhibition of recombinant N-terminal FLAG-tagged human full-length PRMT5/full length human MEP50 extracted from baculovirus expression system using [3H]-SAM as substrate preincubated for 15 mins followed by substrate addition and measured after 60 mins by multimode plate reader analysis
Sequence of PRMT5/MEP50 complex (O14744 whole entry): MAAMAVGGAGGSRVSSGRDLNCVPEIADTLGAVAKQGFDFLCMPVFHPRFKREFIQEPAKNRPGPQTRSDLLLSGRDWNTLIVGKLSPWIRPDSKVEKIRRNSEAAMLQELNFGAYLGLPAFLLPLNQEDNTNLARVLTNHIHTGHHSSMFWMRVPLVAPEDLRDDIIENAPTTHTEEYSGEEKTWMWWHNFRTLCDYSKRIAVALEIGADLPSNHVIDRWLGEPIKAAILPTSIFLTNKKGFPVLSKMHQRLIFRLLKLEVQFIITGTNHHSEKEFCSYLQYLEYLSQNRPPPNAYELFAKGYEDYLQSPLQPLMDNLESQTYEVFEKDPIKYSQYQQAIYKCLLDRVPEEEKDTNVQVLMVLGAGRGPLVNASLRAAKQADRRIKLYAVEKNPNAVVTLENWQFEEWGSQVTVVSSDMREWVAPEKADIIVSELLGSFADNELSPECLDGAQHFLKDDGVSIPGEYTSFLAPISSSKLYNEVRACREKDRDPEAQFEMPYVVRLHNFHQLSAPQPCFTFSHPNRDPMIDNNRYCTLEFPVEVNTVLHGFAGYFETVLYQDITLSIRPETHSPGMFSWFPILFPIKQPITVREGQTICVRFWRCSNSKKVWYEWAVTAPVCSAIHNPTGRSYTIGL
Sequence of PRMT5/MEP50 complex (Q9BQA1 whole entry, further chain): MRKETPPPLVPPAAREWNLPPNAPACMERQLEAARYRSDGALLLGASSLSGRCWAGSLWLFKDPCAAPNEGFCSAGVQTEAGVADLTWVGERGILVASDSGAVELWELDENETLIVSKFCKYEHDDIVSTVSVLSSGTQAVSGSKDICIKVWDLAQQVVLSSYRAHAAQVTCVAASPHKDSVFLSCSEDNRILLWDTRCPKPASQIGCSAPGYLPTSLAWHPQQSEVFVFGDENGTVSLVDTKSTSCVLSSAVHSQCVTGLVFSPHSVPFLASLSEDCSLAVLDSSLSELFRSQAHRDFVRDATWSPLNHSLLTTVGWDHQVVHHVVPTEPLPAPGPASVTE

[1] = molecular target: Voltage-gated inwardly rectifying potassium channel KCNH2 (Homo sapiens, UniProt Q12809); experiment: Inhibition of human ERG; format: toxicity
Sequence of Voltage-gated inwardly rectifying potassium channel KCNH2 (Q12809 whole entry): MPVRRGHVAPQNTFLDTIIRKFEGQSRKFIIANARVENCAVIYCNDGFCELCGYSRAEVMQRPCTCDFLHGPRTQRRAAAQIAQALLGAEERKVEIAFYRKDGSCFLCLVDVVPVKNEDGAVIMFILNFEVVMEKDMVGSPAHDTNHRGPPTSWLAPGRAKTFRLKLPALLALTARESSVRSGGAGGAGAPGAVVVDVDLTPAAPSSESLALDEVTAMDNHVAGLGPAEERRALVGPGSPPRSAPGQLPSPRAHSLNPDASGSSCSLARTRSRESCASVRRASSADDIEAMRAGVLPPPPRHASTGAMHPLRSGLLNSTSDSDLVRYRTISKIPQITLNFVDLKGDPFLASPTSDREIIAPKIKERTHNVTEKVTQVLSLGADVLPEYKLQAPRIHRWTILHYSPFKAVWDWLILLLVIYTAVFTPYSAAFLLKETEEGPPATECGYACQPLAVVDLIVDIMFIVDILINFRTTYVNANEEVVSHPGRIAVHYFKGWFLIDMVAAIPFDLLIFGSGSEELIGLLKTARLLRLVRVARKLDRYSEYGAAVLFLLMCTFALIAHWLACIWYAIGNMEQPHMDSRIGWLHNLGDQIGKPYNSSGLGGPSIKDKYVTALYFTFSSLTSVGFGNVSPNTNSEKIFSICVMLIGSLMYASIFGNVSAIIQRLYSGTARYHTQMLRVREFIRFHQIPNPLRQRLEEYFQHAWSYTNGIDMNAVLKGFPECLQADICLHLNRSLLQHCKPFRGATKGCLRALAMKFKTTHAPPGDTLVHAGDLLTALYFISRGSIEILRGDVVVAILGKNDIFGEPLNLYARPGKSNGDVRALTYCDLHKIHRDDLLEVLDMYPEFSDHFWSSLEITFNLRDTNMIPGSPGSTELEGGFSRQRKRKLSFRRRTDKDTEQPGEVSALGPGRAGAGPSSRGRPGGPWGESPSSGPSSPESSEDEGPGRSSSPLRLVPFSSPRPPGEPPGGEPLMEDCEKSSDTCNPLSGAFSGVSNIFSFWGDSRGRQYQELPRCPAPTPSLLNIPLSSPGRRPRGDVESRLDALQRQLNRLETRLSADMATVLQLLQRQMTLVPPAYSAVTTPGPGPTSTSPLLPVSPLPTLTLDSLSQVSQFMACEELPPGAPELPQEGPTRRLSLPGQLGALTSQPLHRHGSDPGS

[2] = MRT (0 to t) in Sprague-Dawley rat at 10 mg/kg, po by LC-MS/MS analysis; format: ADME, organism-based; settings: in vivo
[3] = Protein binding in human plasma; format: ADME, cell-free; settings: read-out: PPB (converted)
[4] = Volume of distribution in Sprague-Dawley rat at 2 mg/kg, iv by LC-MS/MS analysis; format: ADME, organism-based; settings: in vivo
Cytochrome P450 3A4 = Cytochrome P450 3A4 (Homo sapiens, UniProt P08684); experiment: Inhibition of CYP3A4 (unknown origin) using midazolam as substrate; format: ADME
Sequence of Cytochrome P450 3A4 (P08684 whole entry): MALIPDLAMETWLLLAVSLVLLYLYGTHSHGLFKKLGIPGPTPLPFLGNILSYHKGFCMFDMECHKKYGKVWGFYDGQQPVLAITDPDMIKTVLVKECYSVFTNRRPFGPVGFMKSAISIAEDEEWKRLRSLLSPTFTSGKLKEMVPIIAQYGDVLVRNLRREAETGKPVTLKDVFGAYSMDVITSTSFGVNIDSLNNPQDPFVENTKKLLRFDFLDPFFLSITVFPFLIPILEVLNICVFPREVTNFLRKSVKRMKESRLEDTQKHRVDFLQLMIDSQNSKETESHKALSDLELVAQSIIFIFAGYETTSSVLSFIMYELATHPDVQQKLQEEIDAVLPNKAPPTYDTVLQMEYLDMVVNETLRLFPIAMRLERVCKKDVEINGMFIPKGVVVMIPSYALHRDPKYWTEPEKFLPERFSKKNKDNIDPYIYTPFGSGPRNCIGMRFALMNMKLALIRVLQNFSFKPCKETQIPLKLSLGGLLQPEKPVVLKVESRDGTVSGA

Cytochrome P450 2C9 = Cytochrome P450 2C9 (Homo sapiens, UniProt P11712); experiment: Inhibition of CYP2C9 (unknown origin); format: ADME
Sequence of Cytochrome P450 2C9 (P11712 whole entry): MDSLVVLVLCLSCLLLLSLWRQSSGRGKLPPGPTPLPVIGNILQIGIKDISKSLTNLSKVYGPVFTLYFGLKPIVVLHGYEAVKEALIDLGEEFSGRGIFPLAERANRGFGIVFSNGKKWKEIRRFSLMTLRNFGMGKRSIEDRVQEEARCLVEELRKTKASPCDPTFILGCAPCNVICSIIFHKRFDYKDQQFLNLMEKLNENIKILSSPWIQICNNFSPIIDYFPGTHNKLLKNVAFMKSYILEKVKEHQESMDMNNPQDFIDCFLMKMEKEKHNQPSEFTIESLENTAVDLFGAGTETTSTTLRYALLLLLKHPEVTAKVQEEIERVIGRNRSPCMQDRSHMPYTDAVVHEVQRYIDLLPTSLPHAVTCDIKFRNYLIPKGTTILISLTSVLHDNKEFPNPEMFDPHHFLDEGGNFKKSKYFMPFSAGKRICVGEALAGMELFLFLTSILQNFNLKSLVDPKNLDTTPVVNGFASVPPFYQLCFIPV

Z-138 [5] = experiment: Antitumor activity against human Z138 cells xenografted in female SCID.BG nude mouse assessed as tumor growth inhibition at 12.5 mg/kg, po administered twice a day for 21 days relative to control; format: functional; settings: Z-138, 504 h, time 21 day, read-out: TGI
[6] = Metabolic stability in dog liver microsomes assessed as half-life at 1 uM measured upto 240 mins; format: ADME, Canis lupus familiaris, Microsome
[7] = Cmax in Sprague-Dawley rat at 10 mg/kg, po by LC-MS/MS analysis; format: ADME, organism-based; settings: Sprague-Dawley, in vivo, read-out: Cmax
[8] = Toxicity in Sprague-Dawley rat assessed as structural changes in spleen at 31.25 to 125 mg/kg, po administered once a day for 14 days by H and E staining based analysis; format: organism-based; settings: in vivo, 336 h, dose 31.25-125 mg/kg, time 14 day
[9] = AUC (0 to t) in Sprague-Dawley rat at 2 mg/kg, iv by LC-MS/MS analysis; format: ADME, organism-based; settings: in vivo
[10] = molecular target: Protein arginine N-methyltransferase 5 (Homo sapiens) (UniProt O14744); experiment: Inhibition of PRMT5 in human Z138 cells assessed as decrease in symmetric dimethyl arginine level incubated for 48 hrs by Western blot analysis; format: cell-based; settings: dose 0.005-5 µM
Sequence of Protein arginine N-methyltransferase 5 (Homo sapiens) (O14744 whole entry): as the sequence (O14744 whole entry) above

Z-138 [11] = experiment: Induction of apoptosis in human Z138 cells assessed as early apoptotic cells at 50.0 nM incubated for 168 hrs by Annexin V-FITC/PI staining based flow cytometric analysis (reference value: 1.68 %); format: functional
Cytochrome P450 2D6 = Cytochrome P450 2D6 (Homo sapiens, UniProt P10635); experiment: Inhibition of CYP2D6 (unknown origin); format: ADME
Sequence of Cytochrome P450 2D6 (P10635 whole entry): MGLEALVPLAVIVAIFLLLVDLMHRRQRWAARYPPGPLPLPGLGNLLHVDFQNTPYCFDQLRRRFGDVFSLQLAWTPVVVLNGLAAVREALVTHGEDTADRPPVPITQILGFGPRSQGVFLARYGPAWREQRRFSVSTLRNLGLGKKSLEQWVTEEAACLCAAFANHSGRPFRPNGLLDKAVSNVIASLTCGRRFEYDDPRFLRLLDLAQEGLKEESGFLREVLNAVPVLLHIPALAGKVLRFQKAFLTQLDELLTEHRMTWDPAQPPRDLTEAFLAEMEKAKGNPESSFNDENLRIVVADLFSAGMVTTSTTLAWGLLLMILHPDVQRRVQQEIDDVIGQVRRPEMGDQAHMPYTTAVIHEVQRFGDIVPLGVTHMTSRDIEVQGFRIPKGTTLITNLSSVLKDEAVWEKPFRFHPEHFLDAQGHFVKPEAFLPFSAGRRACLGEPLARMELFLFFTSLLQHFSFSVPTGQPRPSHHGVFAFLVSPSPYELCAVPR

Z-138 [12] = experiment: Antiproliferative activity against PRMT5 knockout human Z138 cells measured after 7 days by CellTiter-Glo luminescence cell viability assay; format: functional, cell-based; settings: Z-138, 168 h
[13] = Toxicity in Sprague-Dawley rat assessed as structural changes in thymus at 31.25 to 125 mg/kg, po administered once a day for 14 days by H and E staining based analysis; format: organism-based; settings: in vivo, 336 h, dose 31.25-125 mg/kg, time 14 day
Z-138 [14] = experiment: Induction of apoptosis in human Z138 cells assessed as early apoptotic cells at 0.4 nM incubated for 168 hrs by Annexin V-FITC/PI staining based flow cytometric analysis (reference value: 1.68 %); format: functional
Z-138 [15] = experiment: Induction of apoptosis in human Z138 cells assessed as necrotic cells at 2.0 nM incubated for 168 hrs by Annexin V-FITC/PI staining based flow cytometric analysis (reference value: 3.54 %); format: functional
[16] = molecular target: Protein arginine N-methyltransferase 5 (Homo sapiens) (UniProt O14744); experiment: In vivo inhibition of PRMT5 in female SCID.BG nude mouse xenografted with human Z138 cells assessed as decrease in SmD3me2s level at 12.5 to 50 mg/kg, po administered twice a day for 21 days by Western blotting analysis; format: functional, organism-based; settings: dose 12.5-50 mg/kg, time 21.0 day
[17] = Toxicity in Sprague-Dawley rat assessed as body weight loss at 31.25 to 125 mg/kg, po administered once a day for 14 days; format: organism-based; settings: in vivo, 336 h, dose 31.25-125 mg/kg, time 14 day
[18] = Metabolic stability in mouse liver microsomes assessed as half-life at 1 uM measured upto 240 mins; format: ADME, Microsome
Z-138 [19] = experiment: Cell cycle arrest in human Z138 cells assessed as increase in DNA content at 0.4 nM incubated for 168 hrs by RNase A/PI staining based flow cytometric analysis relative to control; format: functional
[20] = Protein binding in Sprague-Dawley rat plasma; format: ADME, cell-free; settings: read-out: PPB (converted)
[21] = Toxicity in Sprague-Dawley rat assessed as animal death at 31.25 to 125 mg/kg, po administered once a day for 14 days; format: organism-based; settings: in vivo, 336 h, dose 31.25-125 mg/kg, time 14 day
[22] = molecular target: T1, Protein arginine N-methyltransferase 7 (Homo sapiens, UniProt Q9NVM4); experiment: Inhibition of PRMT7 (unknown origin)
T1 sequence (Q9NVM4 whole entry): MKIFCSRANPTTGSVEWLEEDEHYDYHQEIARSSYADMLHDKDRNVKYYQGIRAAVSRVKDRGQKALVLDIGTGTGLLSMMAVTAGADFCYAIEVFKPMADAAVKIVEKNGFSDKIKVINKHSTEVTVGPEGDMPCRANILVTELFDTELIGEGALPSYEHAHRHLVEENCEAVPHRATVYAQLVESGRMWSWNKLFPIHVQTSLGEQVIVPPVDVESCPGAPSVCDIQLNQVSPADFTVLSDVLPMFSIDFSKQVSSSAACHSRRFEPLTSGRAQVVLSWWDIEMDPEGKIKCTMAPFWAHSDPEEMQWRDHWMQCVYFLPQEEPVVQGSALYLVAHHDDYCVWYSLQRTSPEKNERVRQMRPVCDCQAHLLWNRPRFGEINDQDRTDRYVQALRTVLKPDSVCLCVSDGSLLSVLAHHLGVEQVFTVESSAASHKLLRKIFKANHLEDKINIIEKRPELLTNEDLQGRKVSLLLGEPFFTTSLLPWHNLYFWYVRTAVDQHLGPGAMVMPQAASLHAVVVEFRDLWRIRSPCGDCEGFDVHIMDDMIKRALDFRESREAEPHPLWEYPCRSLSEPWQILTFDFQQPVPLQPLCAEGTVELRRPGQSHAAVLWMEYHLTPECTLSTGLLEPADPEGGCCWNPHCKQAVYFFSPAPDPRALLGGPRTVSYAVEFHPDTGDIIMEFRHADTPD

[23] = Metabolic stability in monkey liver microsomes assessed as half-life at 1 uM measured upto 240 mins; format: ADME, Macaca mulatta, Microsome; settings: rhesus monkey
[24] = Metabolic stability in rat liver microsomes assessed as half-life at 1 uM measured upto 240 mins; format: ADME, Microsome
Cytochrome P450 2C19 = Cytochrome P450 2C19 (Homo sapiens, UniProt P33261); experiment: Inhibition of CYP2C19 (unknown origin); format: ADME
Sequence of Cytochrome P450 2C19 (P33261 whole entry): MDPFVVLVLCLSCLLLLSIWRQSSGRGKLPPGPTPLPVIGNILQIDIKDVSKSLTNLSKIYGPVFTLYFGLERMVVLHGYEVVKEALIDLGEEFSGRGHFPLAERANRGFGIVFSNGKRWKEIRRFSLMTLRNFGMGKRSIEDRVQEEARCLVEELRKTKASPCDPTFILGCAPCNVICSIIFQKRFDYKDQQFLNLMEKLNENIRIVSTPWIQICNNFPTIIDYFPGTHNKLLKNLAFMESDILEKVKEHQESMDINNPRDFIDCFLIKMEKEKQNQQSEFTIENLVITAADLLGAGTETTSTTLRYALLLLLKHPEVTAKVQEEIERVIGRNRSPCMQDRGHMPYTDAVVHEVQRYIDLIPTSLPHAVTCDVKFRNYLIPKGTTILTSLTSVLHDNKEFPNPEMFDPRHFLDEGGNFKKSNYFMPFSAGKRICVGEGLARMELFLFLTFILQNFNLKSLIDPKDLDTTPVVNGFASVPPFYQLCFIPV

Z-138 [25] = experiment: Antiproliferative activity against human Z138 cells measured after 7 days by CellTiter-Glo luminescence cell viability assay; format: functional, cell-based; settings: Z-138, 168 h

Sequence of Cytochrome P450 2C8 (P10632 whole entry): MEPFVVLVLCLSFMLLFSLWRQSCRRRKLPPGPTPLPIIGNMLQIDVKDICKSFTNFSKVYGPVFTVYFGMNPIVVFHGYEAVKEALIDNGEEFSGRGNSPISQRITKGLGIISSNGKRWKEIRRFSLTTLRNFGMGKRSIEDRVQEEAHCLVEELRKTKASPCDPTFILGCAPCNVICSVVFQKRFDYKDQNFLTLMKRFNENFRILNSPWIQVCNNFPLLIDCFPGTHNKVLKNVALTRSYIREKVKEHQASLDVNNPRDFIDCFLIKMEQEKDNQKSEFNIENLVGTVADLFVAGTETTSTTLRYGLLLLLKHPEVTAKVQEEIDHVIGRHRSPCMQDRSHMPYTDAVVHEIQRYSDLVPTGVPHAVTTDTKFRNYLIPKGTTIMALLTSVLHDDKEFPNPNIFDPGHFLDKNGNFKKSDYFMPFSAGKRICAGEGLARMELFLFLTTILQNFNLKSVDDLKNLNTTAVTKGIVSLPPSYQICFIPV

## CC(=O)N1CC2(CC(Nc3cc4c(cn3)C3(CC3)CN(C[C@H](O)CN3CCc5ccccc5C3)C4=O)C2)C1
Cytochrome P450 2C8
  pIC50: < 4.30
NCI-H1299
  pIC50: 7.25
PRMT5/MEP50 complex
  pIC50: 7.68
[1]
  pIC50: < 4.82
[2]
  MRT last: 1.7 h
[3]
  fraction unbound: 0.106
[4]
  Vd: 1.4 L/kg
Cytochrome P450 3A4
  pIC50: < 4.30
Cytochrome P450 2C9
  pIC50: < 4.30
Z-138 [5]
  inhibition in vivo at 12.5 mg/kg: 104%
[6]
  half-life at 1 µM: 2.54 h
[7]
  Cmax: 894 ng/mL
[8]
  Activity: Non-toxic
[9]
  AUC(0-t): 771 ng·h/mL
[10]
  inhibition: Dose-dependent-effect
Z-138 [11]
  Activity: 78.2%
Cytochrome P450 2D6
  pIC50: < 4.30
Z-138 [12]
  pIC50: < 5.00
[13]
  Activity: Non-toxic
Z-138 [14]
  Activity: 1.89%
Z-138 [15]
  Activity: 6.68%
[16]
  inhibition: Active; More Potent Than Gsk3326595
[17]
  Activity: Non-toxic
[18]
  half-life at 1 µM: 1.39 h
Z-138 [19]
  Activity: 52.4%
[20]
  fraction unbound: 0.04
[21]
  Activity: Non-toxic
[22]
  pIC50: < 5.00
[23]
  half-life at 1 µM: 0.304 h
[24]
  half-life at 1 µM: 1.43 h
Cytochrome P450 2C19
  pIC50: < 4.30

## CC(=O)N1CCC(Nc2cc(C(=O)NC[C@H](O)CN3CCc4ccccc4C3)ncn2)CC1 [PEMRAMETOSTAT]
Z-138 [25]
  pIC50: 7.59
[1]
  pIC50: < 4.82
[2]
  MRT last: 1.1 h
[4]
  Vd: 1.4 L/kg
[7]
  Cmax: 355 ng/mL
[9]
  AUC(0-t): 598 ng·h/mL
Z-138 [11]
  Activity: 34.1%
Z-138 [14]
  Activity: 1.53%
Z-138 [15]
  Activity: 2.64%
Z-138 [19]
  Activity: 50.9%
[22]
  pIC50: < 5.00

From ChEMBL document CHEMBL6087464, “Design, Synthesis, and Biological Evaluation of 3,4-Dihydroisoquinolin-1(2H)-one Derivatives as Protein Arginine Methyltransferase 5 Inhibitors for the Treatment of Non-Hodgkin's Lymphoma” (J Med Chem, 2025)
